Results taken from article PMC7956587, “Molecular Docking Studies and Biological Evaluation of Berberine–Benzothiazole Derivatives as an Anti-Influenza Agent via Blocking of Neuraminidase” (International Journal of Molecular Sciences, 2021).
Where two headings read alike, the source gives them in different places.

Columns and labels:
[1] = in vitro; settings: dog
[2] = test system: influenza A virus A/Vic/3/75 (H3N2); assay: In vitro antiviral bioassay (CPE reduction, SRB) in MDCK cells; type: cell-based; settings: for IC50: Influenza A virus, H3N2, MDCK, 48 h; for TI A/VIC/3/75 (H3N2): Therapeutic index, TI = CC50/IC50
[3] = test system: influenza B virus B/Lee/40; assay: as above; type: cell-based; settings: for IC50: Influenza B virus; for TI B/LEE/40: Therapeutic index, TI = CC50/IC50
[4] = test system: influenza A virus A/PR/8/34 (H1N1); assay: as above; type: cell-based; settings: for IC50: Influenza A virus, MDCK, 48 h; for TI A/PR/8/34 (H1N1): Therapeutic index, TI = CC50/IC50
[5] = test system: influenza B virus B/Maryland/1/59; assay: as above; type: cell-based; settings: for IC50: Influenza B virus, read-out: IC50 B/MARYLAND/1/59; for TI B/MARYLAND/1/59: Therapeutic index, TI = CC50/IC50
[6] = test system: MDCK cells; settings: dog, 48 h
[7] = biological target: influenza virus neuraminidase (Influenza A virus, UniProt P03468); assay: Viral neuraminidase inhibition assay (NA-Star kit); type: biochemical, influenza A/PR/8/34 virus; settings: for activity at 0.1 µg/mL: at 0.1 μg/mL; for activity at 0.1 µg/mL / activity at 1 µg/mL / activity at 10 µg/mL: (Treatment/Virus) × 100, remaining activity; for activity at 1 µg/mL: at 1 μg/mL; for activity at 10 µg/mL: at 10 μg/mL; for NA inhibition activity (in words): compared with oseltamivir, Figure 1
[8] = Cytotoxicity on MDCK cells, SRB method; settings: dog
[9] = MDCK cells, 50 TCID50, 48 h, mean ± S.D., triplicate

influenza virus neuraminidase, sequence (P03468 whole entry, looked up): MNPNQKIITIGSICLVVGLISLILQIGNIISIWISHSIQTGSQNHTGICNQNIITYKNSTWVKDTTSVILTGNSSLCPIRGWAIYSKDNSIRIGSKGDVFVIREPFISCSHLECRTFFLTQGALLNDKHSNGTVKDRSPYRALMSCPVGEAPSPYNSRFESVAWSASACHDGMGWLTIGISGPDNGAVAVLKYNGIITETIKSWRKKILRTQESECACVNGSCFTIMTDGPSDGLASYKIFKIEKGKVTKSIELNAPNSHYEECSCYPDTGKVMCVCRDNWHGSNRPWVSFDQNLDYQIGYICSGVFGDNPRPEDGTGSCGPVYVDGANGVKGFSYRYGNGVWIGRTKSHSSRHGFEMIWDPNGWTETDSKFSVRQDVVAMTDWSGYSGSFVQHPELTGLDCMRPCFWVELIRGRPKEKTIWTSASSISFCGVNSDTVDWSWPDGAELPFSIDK

Structure (SMILES) | CC50 at 48 h [1] [µg/mL] | IC50 [2] [µg/mL] | TI A/VIC/3/75 (H3N2) [2] | IC50 [3, 9] [µg/mL] | TI B/LEE/40 [3] | IC50 [4] [µg/mL] | TI A/PR/8/34 (H1N1) [4] | IC50 [5, 9] [µg/mL] | TI B/MARYLAND/1/59 [5] | CC50 [6] [µg/mL] | activity at 0.1 µg/mL [7] [%] | activity at 1 µg/mL [7] [%] | activity at 10 µg/mL [7] [%] | NA inhibition activity (in words) [7] | IC50 A/VIC/3/75 (H3N2) [2] | IC50 B/LEE/40 [3, 9] | IC50 A/PR/8/34 (H1N1) [4] | IC50 B/MARYLAND/1/59 [5, 9] | CC50 at 48 h [8] [µg/mL] | IC50 ([5]; MDCK, 48 h) [µg/mL]
COc1ccc2cc3[n+](cc2c1OCCCCCNc1nc2ccccc2s1)CCc1cc2c(cc1-3)OCO2 [BBD 1] | > 100 | 45.1 ± 1.75 | 9.672 | 55.5 ± 3.77 | 7.874 | 25.2 ± 0.154 | 17.32 | 55.1 ± 2.65 | 7.924 | 436.7 ± 2.635 | 40.3 | 30.4 | 15.6 | – | – | – | – | – | – | –
COc1ccc2cc3[n+](cc2c1OCCCCCNc1nc2ccc([N+](=O)[O-])cc2s1)CCc1cc2c(cc1-3)OCO2 [BBD 2] | > 100 | 52.2 ± 2.07 | 6.525 | 61.7 ± 1.65 | 5.516 | 30.9 ± 0.619 | 11.01 | 65.3 ± 1.88 | 5.212 | 340.5 ± 1.180 | – | – | – | – | – | – | – | – | – | –
COc1ccc2cc3[n+](cc2c1OCCCCCNc1nc2ccc(C(=O)O)cc2s1)CCc1cc2c(cc1-3)OCO2 [BBD 3] | > 100 | 60.7 ± 1.06 | 6.303 | 53.9 ± 1.36 | 7.105 | 35.9 ± 0.659 | 10.65 | 56.4 ± 1.06 | 6.784 | 382.9 ± 2.964 | – | – | – | – | – | – | – | – | – | –
COc1ccc2cc3[n+](cc2c1OCCCCCNc1nc2ccc(C)cc2s1)CCc1cc2c(cc1-3)OCO2 [BBD 4] | > 100 | 55 ± 0.87 | 5.862 | 43.2 ± 0.86 | 7.406 | 37.3 ± 0.669 | 8.655 | 41.6 ± 0.67 | 7.762 | 322.6 ± 2.543 | – | – | – | moderate NA inhibition activity | – | – | – | – | – | –
COc1ccc2nc(NCCCCCOc3c(OC)ccc4cc5[n+](cc34)CCc3cc4c(cc3-5)OCO4)sc2c1 [BBD 5] | > 100 | 57.3 ± 2.13 | 5.343 | 36.9 ± 1.52 | 8.294 | 39.54 ± 0.326 | 7.749 | 44.3 ± 2.06 | 6.921 | 306.4 ± 3.612 | – | – | – | moderate NA inhibition activity | – | – | – | – | – | –
CCOc1ccc2nc(NCCCCCOc3c(OC)ccc4cc5[n+](cc34)CCc3cc4c(cc3-5)OCO4)sc2c1 [BBD 6] | > 100 | 60.4 ± 1.35 | 3.663 | 38.8 ± 2.08 | 5.712 | 42.8 ± 0.478 | 5.176 | 36.9 ± 2.15 | 6.003 | 221.4 ± 1.180 | – | – | – | – | – | – | – | – | – | –
COc1ccc2cc3[n+](cc2c1OCCCCCNc1nc2ccc(Cl)cc2s1)CCc1cc2c(cc1-3)OCO2 [BBD 7] | > 100 | 38.8 ± 2.51 | 11.94 | 81.4 ± 3.01 | – | 24.3 ± 0.419 | 19.08 | 88.1 ± 1.16 | 5.259 | 463.5 ± 3.386 | 37.4 | 32.1 | 14.5 | – | – | – | – | – | – | –
COc1ccc2cc3[n+](cc2c1OCCCCCNc1nc2ccc(Br)cc2s1)CCc1cc2c(cc1-3)OCO2 [BBD 8] | > 100 | 70.7 ± 0.94 | 4.65 | 74.8 ± 1.83 | 4.395 | 68.02 ± 0.67 | 4.835 | 81.2 ± 0.91 | 4.052 | 328.9 ± 1.065 | – | – | – | – | – | – | – | – | – | –
COc1ccc2cc3[n+](cc2c1OCCCCCNc1nc2ccc(I)cc2s1)CCc1cc2c(cc1-3)OCO2 [BBD 9] | > 100 | 54.2 ± 2.09 | 5.585 | 69.8 ± 2.57 | 4.331 | 54.5 ± 1.75 | 5.547 | 78.5 ± 2.31 | 3.851 | 302.5 ± 1.771 | – | – | – | – | – | – | – | – | – | –
COc1ccc2cc3[n+](cc2c1OCCCCCNc1nc2ccc(F)cc2s1)CCc1cc2c(cc1-3)OCO2 [BBD 10] | > 100 | 49.9 ± 1.31 | 6.228 | 64.6 ± 1.24 | 4.812 | 30.5 ± 0.761 | 10.18 | 75.7 ± 2.06 | 4.100 | 310.6 ± 1.629 | – | – | – | – | – | – | – | – | – | –
COc1ccc2cc3[n+](cc2c1OCCCCCNc1nc2c(F)cc(F)cc2s1)CCc1cc2c(cc1-3)OCO2 [BBD 11] | > 100 | 48.4 ± 2.2 | 9.655 | 85.1 ± 3.74 | 5.494 | 27.2 ± 0.394 | 17.19 | 98.3 ± 2.21 | 4.75 | 467.7 ± 2.647 | 40.8 | 33.2 | 18.4 | – | – | – | – | – | – | –
COc1ccc2cc3[n+](cc2c1OCCCCCNc1nc2ccc(C(F)(F)F)cc2s1)CCc1cc2c(cc1-3)OCO2 [BBD 12] | > 100 | 44.6 ± 1.65 | 6.784 | 67.7 ± 1.52 | 4.468 | 28.7 ± 0.514 | 10.52 | 66.2 ± 1.82 | 4.565 | 302.3 ± 2.446 | – | – | – | – | – | – | – | – | – | –
COc1ccc2cc3[n+](cc2c1OCCCCCNc1nc2ccc(C#N)cc2s1)CCc1cc2c(cc1-3)OCO2 [BBD 13] | 45.1 ± 0.864 | – | – | – | – | – | – | – | – | – | – | – | – | – | did not show any activity | did not show any activity | did not show any activity | did not show any activity | – | –
COc1ccc2cc3[n+](cc2c1OCCCCCNNc1nc2ccccc2s1)CCc1cc2c(cc1-3)OCO2 [BBD 14] | > 100 | 56.3 ± 2.06 | 5.403 | 70.3 ± 2.24 | 4.327 | 40.3 ± 0.725 | 7.543 | 73.4 ± 2.17 | 4.143 | 304.3 ± 1.261 | – | – | – | – | – | – | – | – | – | –
COc1ccc2cc3[n+](cc2c1OC)CCc1cc2c(cc1-3)OCO2 [BERBERINE, Berberine] | – | 41.6 ± 2.04 | 1.571 | 60.8 ± 1.86 | 1.07 | 36.1 ± 1.57 | 1.808 | – | 1.196 | – | – | – | – | – | – | – | – | – | 65.3 ± 1.92 | 54.6 ± 1.45
CCOC(=O)C1=C[C@@H](OC(CC)CC)[C@H](NC(C)=O)[C@@H](N)C1 [OSELTAMIVIR, Oseltamivir phosphate, reference compound] | – | 22.1 ± 1.07 | 9.27 | 55.9 ± 1.13 | 3.67 | 11.6 ± 1.43 | 17.75 | – | 4.64 | – | 39.1 | 29.1 | 18.3 | – | – | – | – | – | > 100 | 44.2 ± 1.83
